Reference: patent publication US9890171B2, “Aldosterone synthase inhibitors” (Boehringer Ingelheim International GmbH, priority 2014, dated 2018)

target: aldosterone synthase (CYP11B2) (Macaca fascicularis, UniProt A0A2K5UPL9); test: aldosterone synthase inhibition assay; type: biochemical, cynomolgus monkey; details: cynomolgus adrenal gland mitochondria, 2 μM corticosterone, aldosterone quantified by mass spectrometry
Procedure, shortened: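 Cynomolgus adrenal mitochondria ([…]) used as CYP11B2 source with 2 μM corticosterone in 100 mM potassium phosphate pH 7.4, 1% DMSO; reaction started with 1 mM NADPH, run 60-90 min at 37° C. Aldosterone measured by mass spectrometry; IC50 from 4-parameter logistic fit, no-NADPH blank as 0%.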

Chain of aldosterone synthase (CYP11B2) (A0A2K5UPL9 1-503): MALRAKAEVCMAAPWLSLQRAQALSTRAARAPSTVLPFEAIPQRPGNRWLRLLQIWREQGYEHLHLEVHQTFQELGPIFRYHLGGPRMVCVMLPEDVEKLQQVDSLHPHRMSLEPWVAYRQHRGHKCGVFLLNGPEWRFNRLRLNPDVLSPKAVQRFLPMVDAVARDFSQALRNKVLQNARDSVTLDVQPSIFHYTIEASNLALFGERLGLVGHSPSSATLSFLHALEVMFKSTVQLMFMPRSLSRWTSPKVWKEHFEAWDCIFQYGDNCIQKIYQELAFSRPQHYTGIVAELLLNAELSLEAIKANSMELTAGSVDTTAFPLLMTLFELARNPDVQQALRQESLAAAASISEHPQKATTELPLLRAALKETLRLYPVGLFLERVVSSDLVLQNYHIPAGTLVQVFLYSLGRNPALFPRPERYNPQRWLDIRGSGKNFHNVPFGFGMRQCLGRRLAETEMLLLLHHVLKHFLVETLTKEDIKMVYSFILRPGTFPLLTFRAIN

Compound | IC50
CCS(=O)(=O)NC1COCc2c(-c3ccc4c(Cl)n[nH]c4c3)cncc21 (single isomer, unassigned) [Compound 129, Ethanesulfonic acid [8-(3-chloro-1H-indazol-6-yl)-3,4-dihydro-1H-pyrano[4,3-c]pyridin-4-yl]-amide] | 45.9 nM
OC1COCc2c(-c3cc(Cl)c4cn[nH]c4c3)cncc21 (single isomer, unassigned) [Compound 130, 8-(4-Chloro-1H-indazol-6-yl)-3,4-dihydro-1H-pyrano[4,3-c]pyridin-4-ol] | 238 nM
CCS(=O)(=O)NC1COCc2c(-c3ccc4c(c3)C(O)CCO4)cncc21 (single isomer, unassigned) [Compound 133, Ethanesulfonic acid [8-(4-hydroxy-chroman-6-yl)-3,4-dihydro-1H-pyrano[4,3-c]pyridin-4-yl]-amide] | 1470 nM
CCC(=O)NC1COCc2c(-c3ccc4c(c3)C(O)CCO4)cncc21 (single isomer, unassigned) [Compound 135, N-[8-(4-Hydroxy-chroman-6-yl)-3,4-dihydro-1H-pyrano[4,3-c]pyridin-4-yl]-propionamide] | 341 nM
CCS(=O)(=O)NC1COCc2c(-c3ccc4c(c3)C(O)CCO4)cncc21 (single isomer, unassigned) [Compound 136, Ethanesulfonic acid [8-(4-hydroxy-chroman-6-yl)-3,4-dihydro-1H-pyrano[4,3-c]pyridin-4-yl]-amide] | 10000 nM
CC1(O)CCOc2ccc(-c3cncc4c3COCC4O)cc21 (single isomer, unassigned) [Compound 138, 8-(4-Hydroxy-4-methyl-chroman-6-yl)-3,4-dihydro-1H-pyrano[4,3-c]pyridin-4-ol] | 1560 nM
CC1(O)CCOc2ccc(-c3cncc4c3COCC4O)cc21 (single isomer, unassigned) [Compound 139, 8-(4-Hydroxy-4-methyl-chroman-6-yl)-3,4-dihydro-1H-pyrano[4,3-c]pyridin-4-ol] | 2800 nM
CC1(O)CCOc2ccc(-c3cncc4c3COCC4O)cc21 (single isomer, unassigned) [Compound 140, 8-(4-Hydroxy-4-methyl-chroman-6-yl)-3,4-dihydro-1H-pyrano[4,3-c]pyridin-4-ol] | 12000 nM
OC1COCc2c(-c3ccc4c(c3)C(F)(F)CCO4)cncc21 (single isomer, unassigned) [Compound 142, 8-(4,4-Difluoro-chroman-6-yl)-3,4-dihydro-1H-pyrano[4,3-c]pyridin-4-ol] | 118 nM
CCC(=O)NC1COCc2c(-c3ccc4c(c3)C(F)(F)CCO4)cncc21 (single isomer, unassigned) [Compound 143, N-[8-(4,4-Difluoro-chroman-6-yl)-3,4-dihydro-1H-pyrano[4,3-c]pyridin-4-yl]-propionamide] | 27.9 nM
CCS(=O)(=O)NC1COCc2c(-c3ccc4c(c3)C(F)(F)CCO4)cncc21 (single isomer, unassigned) [Compound 144, Ethanesulfonic acid [8-(4,4-difluoro-chroman-6-yl)-3,4-dihydro-1H-pyrano[4,3-c]pyridin-4-yl]-amide] | 470 nM
O=C1NCCOc2cc(-c3cncc4c3COCC4O)ccc21 (single isomer, unassigned) [Compound 146, 8-(4-Hydroxy-3,4-dihydro-1H-pyrano[4,3-c]pyridin-8-yl)-3,4-dihydro-2H-benzo[f][1,4]oxazepin-5-one] | 9730 nM
CCC(=O)NC1COCc2c(-c3ccc4c(c3)OCCNC4=O)cncc21 (single isomer, unassigned) [Compound 147, N-[8-(5-Oxo-2,3,4,5-tetrahydro-benzo[f][1,4]oxazepin-8-yl)-3,4-dihydro-1H-pyrano[4,3-c]pyridin-4-yl]-propionamide] | 1690 nM
CC(=O)NC1COCc2c(-c3ccc4c(c3)CCC4=O)cncc21 (single isomer, unassigned) [Compound 151, N-[8-(1-Oxo-indan-5-yl)-3,4-dihydro-1H-pyrano[4,3-c]pyridin-4-yl]-acetamide] | 4880 nM
CC(=O)NC1COCc2c(-c3ccc4c(c3)CCC4=O)cncc21 (single isomer, unassigned) [Compound 152, N-[8-(1-Oxo-indan-5-yl)-3,4-dihydro-1H-pyrano[4,3-c]pyridin-4-yl]-acetamide] | 50.2 nM
CC(C)(O)CC(=O)NC1COCc2c(-c3ccc4c(c3)CCC4=O)cncc21 (single isomer, unassigned) [Compound 153, 3-Hydroxy-3-methyl-N-[8-(1-oxo-indan-5-yl)-3,4-dihydro-1H-pyrano[4,3-c]pyridin-4-yl]-butyramide] | 70 nM
CC(=O)NC1COCc2c(-c3ccc4oc(=O)ccc4c3)cncc21 (single isomer, unassigned) [Compound 154, N-[8-(2-Oxo-2H-chromen-6-yl)-3,4-dihydro-1H-pyrano[4,3-c]pyridin-4-yl]-acetamide] | 26.3 nM
CCC(=O)NC1COCc2c(-c3ccc4cnn(C)c4c3)cncc21 (single isomer, unassigned) [Compound 155, N-[8-(1-Methyl-1H-indazol-6-yl)-3,4-dihydro-1H-pyrano[4,3-c]pyridin-4-yl]-propionamide] | 3800 nM
CCC(=O)NC1COCc2c(-c3ccc4onc(C)c4c3)cncc21 (single isomer, unassigned) [Compound 156, N-[8-(3-Methyl-benzo[d]isoxazol-5-yl)-3,4-dihydro-1H-pyrano[4,3-c]pyridin-4-yl]-propionamide] | 312 nM
CCS(=O)(=O)NC1COCc2c(-c3ccc4c(c3)CCC4=O)cncc21 (single isomer, unassigned) [Compound 157, Ethanesulfonic acid [8-(1-oxo-indan-5-yl)-3,4-dihydro-1H-pyrano[4,3-c]pyridin-4-yl]-amide] | 46 nM
CCS(=O)(=O)NC1COCc2c(-c3ccc4onc(C)c4c3)cncc21 (single isomer, unassigned) [Compound 159, Ethanesulfonic acid [8-(3-methyl-benzo[d]isoxazol-5-yl)-3,4-dihydro-1H-pyrano[4,3-c]pyridin-4-yl]-amide] | 797 nM
NC(=O)N1CCCc2cc(-c3cncc4c3C(O)COC4)cnc21 (single isomer, unassigned) [Compound 162, 6-(4-Hydroxy-3,4-dihydro-1H-pyrano[3,4-c]pyridin-5-yl)-3,4-dihydro-2H-[1,8]naphthyridine-1-carboxylic acid amide] | 71.4 nM
NC(=O)N1CCCc2cc(-c3cncc4c3COCC4O)cnc21 (single isomer, unassigned) [Compound 163, 6-(4-Hydroxy-3,4-dihydro-1H-pyrano[4,3-c]pyridin-8-yl)-3,4-dihydro-2H-[1,8]naphthyridine-1-carboxylic acid amide] | 44.3 nM

More lines, now with the values ahead:

IC50 | Compound
1470 nM | OC1CCOc2ccc(-c3cncc4c3COCC4O)cc21 (single isomer, unassigned) [Compound 131, 8-(4-Hydroxy-chroman-6-yl)-3,4-dihydro-1H-pyrano[4,3-c]pyridin-4-ol]
518 nM | CCC(=O)NC1COCc2c(-c3ccc4c(c3)C(O)CCO4)cncc21 (single isomer, unassigned) [Compound 132, N-[8-(4-Hydroxy-chroman-6-yl)-3,4-dihydro-1H-pyrano[4,3-c]pyridin-4-yl]-propionamide]
253 nM | OC1CCOc2ccc(-c3cncc4c3COCC4O)cc21 (single isomer, unassigned) [Compound 134, 8-(4-Hydroxy-chroman-6-yl)-3,4-dihydro-1H-pyrano[4,3-c]pyridin-4-ol]
1870 nM | CC1(O)CCOc2ccc(-c3cncc4c3COCC4O)cc21 (single isomer, unassigned) [Compound 137, 8-(4-Hydroxy-4-methyl-chroman-6-yl)-3,4-dihydro-1H-pyrano[4,3-c]pyridin-4-ol]
339 nM | OC1COCc2c(-c3ccc4c(c3)C(F)(F)CCO4)cncc21 (single isomer, unassigned) [Compound 141, 8-(4,4-Difluoro-chroman-6-yl)-3,4-dihydro-1H-pyrano[4,3-c]pyridin-4-ol]
738 nM | O=C1NCCOc2cc(-c3cncc4c3COCC4O)ccc21 (single isomer, unassigned) [Compound 145, 8-(4-Hydroxy-3,4-dihydro-1H-pyrano[4,3-c]pyridin-8-yl)-3,4-dihydro-2H-benzo[f][1,4]oxazepin-5-one]
83.7 nM | OC1COCc2c(-c3ccc4c(c3)COCCC4(F)F)cncc21 (single isomer, unassigned) [Compound 148, 8-(5,5-Difluoro-1,3,4,5-tetrahydro-benzo[c]oxepin-8-yl)-3,4-dihydro-1H-pyrano[4,3-c]pyridin-4-ol]
17.3 nM | Cn1ncc2c(F)cc(-c3cncc4c3COCC4N)cc21 (single isomer, unassigned) [Compound 149, 8-(4-Fluoro-1-methyl-1H-indazol-6-yl)-3,4-dihydro-1H-pyrano[4,3-c]pyridin-4-ylamine]
17.4 nM | CCC(=O)NC1COCc2c(-c3cc(F)c4cnn(C)c4c3)cncc21 (single isomer, unassigned) [Compound 150, N-[8-(4-Fluoro-1-methyl-1H-indazol-6-yl)-3,4-dihydro-1H-pyrano[4,3-c]pyridin-4-yl]-propionamide]
13 nM | CCS(=O)(=O)NC1COCc2c(-c3ccc4oc(=O)ccc4c3)cncc21 (single isomer, unassigned) [Compound 158, Ethanesulfonic acid [8-(2-oxo-2H-chromen-6-yl)-3,4-dihydro-1H-pyrano[4,3-c]pyridin-4-yl]-amide]
35.3 nM | NC(=O)N1CCCc2cc(-c3cncc4c3C(O)COC4)cnc21 (single isomer, unassigned) [Compound 161, 6-(4-Hydroxy-3,4-dihydro-1H-pyrano[3,4-c]pyridin-5-yl)-3,4-dihydro-2H-[1,8]naphthyridine-1-carboxylic acid amide]
